≈ marks a conversion by molar mass, not a printed value.
How the values were obtained:
Type in all cases: cell-based
[1] = tested on: HCT-116 colorectal cancer cell line; assay: CCK-8 proliferation inhibition; details: Homo sapiens, HCT-116, 72 h, concentration of 30 μM; 72 hours; CCK-8; read-out: HCT116 inhibition rate/%
Procedure: (1) HCT-116 colorectal cancer cell line, A549 lung cancer cell line, MGC-803 gastric cancer cell line, BEL-7402 liver cancer cell line, Jurkat T cell leukemia cell line, HL60 acute myeloid leukemia cell line, Hela cervical cancer cell line, MCF-7 breast cancer cell line, PC3 prostate cancer cell line and SAOS-2 osteosarcoma cell line were made into single cell suspension, 180 μL of which was inoculated into 96-well culture plate, which was cultured overnight in CO2 incubator (37° C., 5% CO2, 95% air).
(2) Each of the spiro three-membered ring, spiro five membered ring peptide deformylase inhibitors was dissolved in DMSO, and was further formulated into drug solution with required different final concentration using corresponding cell culture medium. The drug solutions were added to the above cells respectively (20 μL/well), with the control group added with 1‰ DMSO, and cultured in a CO2 incubator for 72 hours.
(3) After incubation for 72 hours, the culture solution was decanted, and 100 μL of 1:10 diluted CCK-8 solution was added.
Wherein, in step (1), the concentration of the single cell suspension was 2000 cells/well.
Wherein, in step (2), HCT-116 cells were cultured in McCoy's 5A medium (containing 10% newborn bovine serum, 1% double antibody); A549 and PC3 cells were cultured in F12 medium (containing 10% newborn bovine serum, 1% double antibody); MGC-803, BEL-7402, SAOS-2, Jurkat and HL60 cells were cultured in 1640 medium (containing 10% newborn bovine serum, 1% double antibody); and MCF-7 and Hela cells were cultured in DMEM high glucose medium (containing 10% newborn bovine serum, 1% double antibody).

[2] = tested on: Escherichia coli (including ESBLs, non-ESBLs); assay: MIC, two-fold agar dilution (CLSI), clinical isolates
Text: (§1) 1. The invention adopts the two-fold agar dilution method recommended by the operating procedure of antimicrobial susceptibility testing set by American Clinical and Laboratory Standards Institute (CLSI) to determine the Minimum Inhibitory Concentration (MIC) of the test samples against the tested strains.

[3] = tested on: Enterococcus faecalis (EFA); assay: as above
Text: as §1

[4] = tested on: methicillin-resistant Staphylococcus epidermidis (MRSE); assay: as above
Text: as §1

[5] = tested on: Moraxella catarrhalis (BCA); assay: as above
Text: as §1

[6] = tested on: Streptococcus pneoumoniae (SPN); assay: as above
Text: as §1

[7] = tested on: Enterococcus faecium (EFM); assay: as above
Text: as §1

[8] = tested on: methicillin-sensitive Staphylococcus epidermidis (MSSE); assay: as above
Text: as §1

[9] = tested on: methicillin-resistant Staphylococcus aureus (MRSA); assay: as above
Text: as §1

[10] = tested on: methicillin-sensitive Staphylococcus aureus (MSSA); assay: as above
Text: as §1

Structure (SMILES): CCCC[C@H](CN(O)C=O)C(=O)N1CC2(CC2)C[C@H]1C(=O)Nc1nc(C)cs1 [Example 19]
- inhibition at 30 µM [1]: 6%
- MIC (anti-bacterial activity) ([2]; strain ECO+ 15-1): 32 µg/mL (≈ 78.3 µM)
- MIC (anti-bacterial activity) ([2]; strain ECO+ 15-2): > 32 µg/mL
- MIC (anti-bacterial activity) ([2]; strain ECO+ 15-3): > 32 µg/mL
- MIC (anti-bacterial activity) ([2]; strain ECO+ 15-4): > 32 µg/mL
- MIC (anti-bacterial activity) ([2]; strain ECO− 15-1): > 32 µg/mL
- MIC (anti-bacterial activity) ([2]; strain ECO− 15-2): > 32 µg/mL
- MIC (anti-bacterial activity) ([2]; strain ECO− 15-3): > 32 µg/mL
- MIC (anti-bacterial activity) ([2]; strain ECO− 15-4): > 32 µg/mL
- MIC (anti-bacterial activity) ([3]; strain EFA 15-1): 8 µg/mL (≈ 19.6 µM)
- MIC (anti-bacterial activity) ([3]; strain EFA 15-2): 8 µg/mL (≈ 19.6 µM)
- MIC (anti-bacterial activity) ([3]; strain EFA 15-3): 8 µg/mL (≈ 19.6 µM)
- MIC (anti-bacterial activity) ([3]; strain EFA 15-4): 8 µg/mL (≈ 19.6 µM)
- MIC (anti-bacterial activity) ([3]; strain EFA 15-5): 8 µg/mL (≈ 19.6 µM)
- MIC (anti-bacterial activity) ([3]; strain EFA 15-6): 8 µg/mL (≈ 19.6 µM)
- MIC (anti-bacterial activity) ([3]; strain EFA 15-9): 8 µg/mL (≈ 19.6 µM)
- MIC (anti-bacterial activity) ([4]; strain MRSE 15-1): 0.06 µg/mL (≈ 0.147 µM)
- MIC (anti-bacterial activity) ([4]; strain MRSE 15-2): 0.125 µg/mL (≈ 0.306 µM)
- MIC (anti-bacterial activity) ([4]; strain MRSE 15-3): 0.125 µg/mL (≈ 0.306 µM)
- MIC (anti-bacterial activity) ([4]; strain MRSE 15-7): 0.125 µg/mL (≈ 0.306 µM)
- MIC (anti-bacterial activity) ([5]; strain BCA 14-1): 1 µg/mL (≈ 2.45 µM)
- MIC (anti-bacterial activity) ([5]; strain BCA 14-4): 1 µg/mL (≈ 2.45 µM)
- MIC (anti-bacterial activity) ([5]; strain BCA 14-5): 0.125 µg/mL (≈ 0.306 µM)
- MIC (anti-bacterial activity) ([5]; strain BCA 14-6): 0.5 µg/mL (≈ 1.22 µM)
- MIC (anti-bacterial activity) ([5]; strain BCA 14-7): 0.25 µg/mL (≈ 0.612 µM)
- MIC (anti-bacterial activity) ([5]; strain BCA 14-8): 0.25 µg/mL (≈ 0.612 µM)
- MIC (anti-bacterial activity) ([5]; strain BCA 14-10): 0.125 µg/mL (≈ 0.306 µM)
- MIC (anti-bacterial activity) ([6]; strain SPN 16-2): 4 µg/mL (≈ 9.79 µM)
- MIC (anti-bacterial activity) ([6]; strain SPN 16-4): 0.25 µg/mL (≈ 0.612 µM)
- MIC (anti-bacterial activity) ([7]; strain EFM 15-1): 8 µg/mL (≈ 19.6 µM)
- MIC (anti-bacterial activity) ([7]; strain EFM 15-2): 4 µg/mL (≈ 9.79 µM)
- MIC (anti-bacterial activity) ([7]; strain EFM 15-3): 0.25 µg/mL (≈ 0.612 µM)
- MIC (anti-bacterial activity) ([7]; strain EFM 15-4): 2 µg/mL (≈ 4.9 µM)
- MIC (anti-bacterial activity) ([7]; strain EFM 15-5): 0.25 µg/mL (≈ 0.612 µM)
- MIC (anti-bacterial activity) ([7]; strain EFM 15-6): 2 µg/mL (≈ 4.9 µM)
- MIC (anti-bacterial activity) ([8]; strain MSSE 15-3): 0.125 µg/mL (≈ 0.306 µM)
- MIC (anti-bacterial activity) ([8]; strain MSSE 15-4): 0.125 µg/mL (≈ 0.306 µM)
- MIC (anti-bacterial activity) ([8]; strain MSSE 15-5): 0.03 µg/mL (≈ 0.0734 µM)
- MIC (anti-bacterial activity) ([8]; strain MSSE 15-6): 0.015 µg/mL (≈ 0.0367 µM)
- MIC (anti-bacterial activity) ([9]; strain MRSA 15-1): 0.125 µg/mL (≈ 0.306 µM)
- MIC (anti-bacterial activity) ([9]; strain MRSA 15-2): 0.125 µg/mL (≈ 0.306 µM)
- MIC (anti-bacterial activity) ([9]; strain MRSA 15-3): 0.03 µg/mL (≈ 0.0734 µM)
- MIC (anti-bacterial activity) ([9]; strain MRSA 15-4): 0.25 µg/mL (≈ 0.612 µM)
- MIC (anti-bacterial activity) ([10]; strain MSSA 15-3): 0.125 µg/mL (≈ 0.306 µM)
- MIC (anti-bacterial activity) ([10]; strain MSSA 15-4): 0.125 µg/mL (≈ 0.306 µM)
- MIC (anti-bacterial activity) ([10]; strain MSSA 15-5): 0.03 µg/mL (≈ 0.0734 µM)
- MIC (anti-bacterial activity) ([10]; strain MSSA 15-6): 0.25 µg/mL (≈ 0.612 µM)

Structure (SMILES): CCCC[C@H](CN(O)C=O)C(=O)N1CC2(CC2)C[C@H]1C(=O)Nc1cc(C)on1 [Example 21, (S)-5-((R)-2-((N-hydroxyformamido)methyl)hexanoyl)-N-(5-methylisoxazol-3yl)-5-spiro[2.4]heptane-6-carboxamide]
- inhibition at 30 µM [1]: 8%
- MIC (anti-bacterial activity) ([2]; strain ECO+ 15-1): 32 µg/mL (≈ 81.5 µM)
- MIC (anti-bacterial activity) ([2]; strain ECO+ 15-2): 32 µg/mL (≈ 81.5 µM)
- MIC (anti-bacterial activity) ([2]; strain ECO+ 15-3): 64 µg/mL (≈ 163 µM)
- MIC (anti-bacterial activity) ([2]; strain ECO+ 15-4): 64 µg/mL (≈ 163 µM)
- MIC (anti-bacterial activity) ([2]; strain ECO− 15-1): 64 µg/mL (≈ 163 µM)
- MIC (anti-bacterial activity) ([2]; strain ECO− 15-2): 64 µg/mL (≈ 163 µM)
- MIC (anti-bacterial activity) ([2]; strain ECO− 15-3): 64 µg/mL (≈ 163 µM)
- MIC (anti-bacterial activity) ([2]; strain ECO− 15-4): 64 µg/mL (≈ 163 µM)
- MIC (anti-bacterial activity) ([3]; strain EFA 15-1): 16 µg/mL (≈ 40.8 µM)
- MIC (anti-bacterial activity) ([3]; strain EFA 15-2): 16 µg/mL (≈ 40.8 µM)
- MIC (anti-bacterial activity) ([3]; strain EFA 15-3): 1 µg/mL (≈ 2.55 µM)
- MIC (anti-bacterial activity) ([3]; strain EFA 15-4): 16 µg/mL (≈ 40.8 µM)
- MIC (anti-bacterial activity) ([3]; strain EFA 15-5): 16 µg/mL (≈ 40.8 µM)
- MIC (anti-bacterial activity) ([3]; strain EFA 15-6): 4 µg/mL (≈ 10.2 µM)
- MIC (anti-bacterial activity) ([3]; strain EFA 15-9): 4 µg/mL (≈ 10.2 µM)
- MIC (anti-bacterial activity) ([4]; strain MRSE 15-1): 0.25 µg/mL (≈ 0.637 µM)
- MIC (anti-bacterial activity) ([4]; strain MRSE 15-2): 0.25 µg/mL (≈ 0.637 µM)
- MIC (anti-bacterial activity) ([4]; strain MRSE 15-3): 0.25 µg/mL (≈ 0.637 µM)
- MIC (anti-bacterial activity) ([4]; strain MRSE 15-7): 0.25 µg/mL (≈ 0.637 µM)
- MIC (anti-bacterial activity) ([5]; strain BCA 14-1): 0.5 µg/mL (≈ 1.27 µM)
- MIC (anti-bacterial activity) ([5]; strain BCA 14-4): 0.5 µg/mL (≈ 1.27 µM)
- MIC (anti-bacterial activity) ([5]; strain BCA 14-5): 0.5 µg/mL (≈ 1.27 µM)
- MIC (anti-bacterial activity) ([5]; strain BCA 14-6): 0.5 µg/mL (≈ 1.27 µM)
- MIC (anti-bacterial activity) ([5]; strain BCA 14-7): 0.5 µg/mL (≈ 1.27 µM)
- MIC (anti-bacterial activity) ([5]; strain BCA 14-8): 0.5 µg/mL (≈ 1.27 µM)
- MIC (anti-bacterial activity) ([5]; strain BCA 14-10): 0.5 µg/mL (≈ 1.27 µM)
- MIC (anti-bacterial activity) ([6]; strain SPN 16-2): 4 µg/mL (≈ 10.2 µM)
- MIC (anti-bacterial activity) ([6]; strain SPN 16-4): 0.5 µg/mL (≈ 1.27 µM)
- MIC (anti-bacterial activity) ([7]; strain EFM 15-1): 0.5 µg/mL (≈ 1.27 µM)
- MIC (anti-bacterial activity) ([7]; strain EFM 15-2): 1 µg/mL (≈ 2.55 µM)
- MIC (anti-bacterial activity) ([7]; strain EFM 15-3): 0.5 µg/mL (≈ 1.27 µM)
- MIC (anti-bacterial activity) ([7]; strain EFM 15-4): 1 µg/mL (≈ 2.55 µM)
- MIC (anti-bacterial activity) ([7]; strain EFM 15-5): 0.5 µg/mL (≈ 1.27 µM)
- MIC (anti-bacterial activity) ([7]; strain EFM 15-6): 2 µg/mL (≈ 5.1 µM)
- MIC (anti-bacterial activity) ([8]; strain MSSE 15-3): 0.5 µg/mL (≈ 1.27 µM)
- MIC (anti-bacterial activity) ([8]; strain MSSE 15-4): 0.25 µg/mL (≈ 0.637 µM)
- MIC (anti-bacterial activity) ([8]; strain MSSE 15-5): 0.03 µg/mL (≈ 0.0764 µM)
- MIC (anti-bacterial activity) ([8]; strain MSSE 15-6): 0.03 µg/mL (≈ 0.0764 µM)
- MIC (anti-bacterial activity) ([9]; strain MRSA 15-1): 0.25 µg/mL (≈ 0.637 µM)
- MIC (anti-bacterial activity) ([9]; strain MRSA 15-2): 0.5 µg/mL (≈ 1.27 µM)
- MIC (anti-bacterial activity) ([9]; strain MRSA 15-3): 0.5 µg/mL (≈ 1.27 µM)
- MIC (anti-bacterial activity) ([9]; strain MRSA 15-4): 0.5 µg/mL (≈ 1.27 µM)
- MIC (anti-bacterial activity) ([10]; strain MSSA 15-3): 0.5 µg/mL (≈ 1.27 µM)
- MIC (anti-bacterial activity) ([10]; strain MSSA 15-4): 0.25 µg/mL (≈ 0.637 µM)
- MIC (anti-bacterial activity) ([10]; strain MSSA 15-5): 0.25 µg/mL (≈ 0.637 µM)
- MIC (anti-bacterial activity) ([10]; strain MSSA 15-6): 0.5 µg/mL (≈ 1.27 µM)
